Results as given in article PMC11093748, “De novo identification of CD4^+ T cell epitopes” (Nature Methods, 2024).

What was measured:
Test in all cases: Single SABR-II co-incubation, TCR analogs
Type in all cases: cell-based, mouse
Settings in all cases: Fig 4B
TCR 4 Analog 2 = test system: TCR 4 Analog 2
Description: (§1) We hypothesized that computational grouping of TCR specificities may reveal closely related TCRs that potentially recognize the same epitope(s), similar to the reverse epitope discovery approach (Fig. 4a). In the absence of experimental antigen discovery, grouping of TCRs is not informative of reactivity; however, we hypothesized that TCRs that co-clustered with SABR-II de-convoluted TCRs bind to the same antigens. To test this, we used three TCR-similarity search algorithms: GLIPH2 (refs. [38],[69]), tcrdist3 (ref. [37]) and CoNGA[39]. All three algorithms take slightly different approaches to group TCR sequences and generate clusters of TCR sequences that share high sequence similarity. In addition, CoNGA considers the transcriptional similarities among T cell clones. Using CoNGA, we defined TCR clusters for two TCRs, TCR4 and TCR6B, and identified analogs that slightly differed in sequences. Moreover, for TCR30, we were able to identify six TCR analogs that co-clustered in CoNGA analysis as well as GLIPH2. For TCR11, we first identified a gene expression (GEX) cluster that had ~50 TCRs that clustered based on gene expression. Using tcrdist3, we calculated the relative distance of each of these TCRs from TCR11 and selected the top seven clonotypes for expression. Together, 16 TCRs were identified as analogs of the experimentally de-convoluted TCRs (Extended Data Fig. 8). These TCRs were cloned and expressed in Jurkat cells. We performed co-incubation assays using single SABR-IIs and observed that 5 of 16 TCRs recognized the same epitopes as the parental TCRs (Fig. 4b). As a result, we were able to identify the cognate epitopes of five additional TCRs from our dataset that had otherwise not been selected for SABR-II screening based on our clonal expansion cutoff.
(§2) Exported clonotypes were used as inputs for GLIPH2 (ref. [69]). For CoNGA, the merged dataset was exported as a .h5ad file and used as an input along with the CellRanger vdj output file. CoNGA analysis was performed using default parameters. Pairwise relative distances among TCRs were calculated using tcrdist3 (ref. [37]). CoNGA, tcrdist3 and GLIPH2 output files were searched manually for analogs that co-cluster with experimentally de-convoluted TCRs. Analogs were synthesized and cloned as described above.
(§3) For SABR library screens, 3 × 10^6 NFAT–GFP Jurkat cells expressing the SABR library were labeled with CellTrace Violet (BioLegend) according to the manufacturer’s protocol before incubation with 3 × 10^6 Jurkat cells expressing the TCR of interest. These mixtures were incubated in a six-well plate for 16–20 h. Cells were stained with anti-CD69-APC-Cy7 where indicated (BioLegend) and the top 1–2% of GFP^+CD69^+ cells were sorted for genomic DNA extraction, indexing and sequencing (see below). Multiplexed assays were scaled on a per-TCR basis (for example 3 × 10^6 for each of three TCRs against 9 × 10^6 library cells). For single SABR assays, unless otherwise defined, 5 × 10^5 SABR expressing NFAT–GFP Jurkat cells (or 5KC cells) were labeled with CellTrace Violet (BioLegend) according to the manufacturer’s protocol before incubation with 5 × 10^5 TCR-expressing Jurkat cells (or 5KC cells) in a round-bottom 96-well plate for 16–20 h. Cells were stained with anti-CD69-APC-Cy7 when indicated and acquired on the Attune NxT flow cytometer (Thermo Fisher Scientific). All flow analysis was performed using FlowJo (BD). For Daudi cell co-culture, 1 × 10^6 Jurkat cells expressing the TCR of interest were incubated with 1 × 10^6 Daudi cells expressing a SABR of interest for 3 days. On day 3, cells were labeled with anti-RT1B-PE and anti-Fas-APC-Cy7 before being acquired on the Attune NxT flow cytometer.

TCR 4 Analog 1 = test system: TCR 4 Analog 1
Description: as §1, §2, §3

TCR 30 Analog 1 = test system: TCR 30 Analog 1
Description: as §1, §2, §3

TCR 11 Analog 3 = test system: TCR 11 Analog 3
Description: as §1, §2, §3

TCR 11 Analog 2 = test system: TCR 11 Analog 2
Description: as §1, §2, §3

TCR 30 Analog 3 = test system: TCR 30 Analog 3
Description: as §1, §2, §3

TCR 30 Analog 6 = test system: TCR 30 Analog 6
Description: as §1, §2, §3

TCR 11 Analog 6 = test system: TCR 11 Analog 6
Description: as §1, §2, §3

TCR 30 Analog 2 = test system: TCR 30 Analog 2
Description: as §1, §2, §3

TCR 11 Analog 7 = test system: TCR 11 Analog 7
Description: as §1, §2, §3

TCR 30 Analog 4 = test system: TCR 30 Analog 4
Description: as §1, §2, §3

TCR 11 Analog 4 = test system: TCR 11 Analog 4
Description: as §1, §2, §3

TCR 11 Analog 1 = test system: TCR 11 Analog 1
Description: as §1, §2, §3

TCR 11 Analog 5 = test system: TCR 11 Analog 5
Description: as §1, §2, §3

TCR 30 Analog 5 = test system: TCR 30 Analog 5
Description: as §1, §2, §3

LQTLALNAARDP
%GFP+CD69+ cells of SABR-NFAT-GFP-Jurkat cells (TCR 4 Analog 2; technical replicate 1): 1% | %GFP+CD69+ cells of SABR-NFAT-GFP-Jurkat cells (TCR 4 Analog 2; technical replicate 2): 0.84% | %GFP+CD69+ cells of SABR-NFAT-GFP-Jurkat cells (TCR 4 Analog 1; technical replicate 1): 1.53% | %GFP+CD69+ cells of SABR-NFAT-GFP-Jurkat cells (TCR 4 Analog 1; technical replicate 2): 1.83%

SHLVEALYLVCGERG
%GFP+CD69+ cells of SABR-NFAT-GFP-Jurkat cells (TCR 30 Analog 1; replicate 1): 3.25% | %GFP+CD69+ cells of SABR-NFAT-GFP-Jurkat cells (TCR 30 Analog 1; replicate 2): 3.04% | %GFP+CD69+ cells of SABR-NFAT-GFP-Jurkat cells (TCR 30 Analog 1; replicate 3): 3.1% | %GFP+CD69+ cells of SABR-NFAT-GFP-Jurkat cells (TCR 11 Analog 3; technical replicate 1): 0.85% | %GFP+CD69+ cells of SABR-NFAT-GFP-Jurkat cells (TCR 11 Analog 3; technical replicate 2): 1.04% | %GFP+CD69+ cells of SABR-NFAT-GFP-Jurkat cells (TCR 11 Analog 2; technical replicate 1): 17.2% | %GFP+CD69+ cells of SABR-NFAT-GFP-Jurkat cells (TCR 11 Analog 2; technical replicate 2): 16.8% | %GFP+CD69+ cells of SABR-NFAT-GFP-Jurkat cells (TCR 30 Analog 3; replicate 1): 1.16% | %GFP+CD69+ cells of SABR-NFAT-GFP-Jurkat cells (TCR 30 Analog 3; replicate 2): 1.27% | %GFP+CD69+ cells of SABR-NFAT-GFP-Jurkat cells (TCR 30 Analog 3; replicate 3): 1.1% | %GFP+CD69+ cells of SABR-NFAT-GFP-Jurkat cells (TCR 30 Analog 6; replicate 1): 1.04% | %GFP+CD69+ cells of SABR-NFAT-GFP-Jurkat cells (TCR 30 Analog 6; replicate 2): 1.01% | %GFP+CD69+ cells of SABR-NFAT-GFP-Jurkat cells (TCR 30 Analog 6; replicate 3): 0.97% | %GFP+CD69+ cells of SABR-NFAT-GFP-Jurkat cells (TCR 11 Analog 6; technical replicate 1): 1% | %GFP+CD69+ cells of SABR-NFAT-GFP-Jurkat cells (TCR 11 Analog 6; technical replicate 2): 1.08% | %GFP+CD69+ cells of SABR-NFAT-GFP-Jurkat cells (TCR 30 Analog 2; replicate 1): 19.2% | %GFP+CD69+ cells of SABR-NFAT-GFP-Jurkat cells (TCR 30 Analog 2; replicate 2): 19% | %GFP+CD69+ cells of SABR-NFAT-GFP-Jurkat cells (TCR 30 Analog 2; replicate 3): 20% | %GFP+CD69+ cells of SABR-NFAT-GFP-Jurkat cells (TCR 11 Analog 7; technical replicate 1): 0.78% | %GFP+CD69+ cells of SABR-NFAT-GFP-Jurkat cells (TCR 11 Analog 7; technical replicate 2): 1.05% | %GFP+CD69+ cells of SABR-NFAT-GFP-Jurkat cells (TCR 30 Analog 4; replicate 1): 1.2% | %GFP+CD69+ cells of SABR-NFAT-GFP-Jurkat cells (TCR 30 Analog 4; replicate 2): 1.13% | %GFP+CD69+ cells of SABR-NFAT-GFP-Jurkat cells (TCR 30 Analog 4; replicate 3): 1.05% | %GFP+CD69+ cells of SABR-NFAT-GFP-Jurkat cells (TCR 11 Analog 4; technical replicate 1): 0.89% | %GFP+CD69+ cells of SABR-NFAT-GFP-Jurkat cells (TCR 11 Analog 4; technical replicate 2): 0.88% | %GFP+CD69+ cells of SABR-NFAT-GFP-Jurkat cells (TCR 11 Analog 1; technical replicate 1): 0.66% | %GFP+CD69+ cells of SABR-NFAT-GFP-Jurkat cells (TCR 11 Analog 1; technical replicate 2): 0.81% | %GFP+CD69+ cells of SABR-NFAT-GFP-Jurkat cells (TCR 11 Analog 5; technical replicate 1): 20.3% | %GFP+CD69+ cells of SABR-NFAT-GFP-Jurkat cells (TCR 11 Analog 5; technical replicate 2): 19.7% | %GFP+CD69+ cells of SABR-NFAT-GFP-Jurkat cells (TCR 30 Analog 5; replicate 1): 34.3% | %GFP+CD69+ cells of SABR-NFAT-GFP-Jurkat cells (TCR 30 Analog 5; replicate 2): 35.1% | %GFP+CD69+ cells of SABR-NFAT-GFP-Jurkat cells (TCR 30 Analog 5; replicate 3): 34.2%
